Patent US12398154B2, “Azaquinazoline pan-KRas inhibitors” (Mirati Therapeutics, Inc., priority 2020, dated 2025)

Key:
KRas G12V = KRas G12V (Homo sapiens, UniProt P01116, G12V); test: biochemical;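 note: KRas binding measured by TR-FRET displacement at room temperature, IC50 fitted from percent of control values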
Method: (§1) The ability of a compound to bind to KRas was measured using a TR-FRET displacement assay. […] After a 60-minute incubation at room temperature, the reaction was measured using a BMG LABTECH CLARIO star Plus via TR-FRET. […] The POC values were fit to a 4-parameter IC50 equation and the IC50 value reported.

KRas G12D = KRas G12D (Homo sapiens, UniProt P01116, G12D); test: biochemical;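 note: TR-FRET displacement binding assay on KRas, read after a one-hour incubation at room temperature, IC50 fitted from percent-of-control values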
Method: as §1

pERK in H727 cells = test: Inhibition of KRas phosphorylation of ERK (Cisbio HTRF pERK assay); details: Homo sapiens, NCI-H727, read-out: Inhibition (HTRF IC50) of KRas-mediated Phosphorylation of ERK, H727
pERK in ASPC1 cells = test: as above; details: Homo sapiens, ASPC1, read-out: Inhibition (HTRF IC50) of KRas-mediated Phosphorylation of ERK, AsPC-1
KRas G12R = KRas G12R (Homo sapiens, UniProt P01116, G12R); test: biochemical;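 note: TR-FRET displacement assay of compound binding to KRas, read after one hour at room temperature, potency from a four-parameter fit of percent-of-control values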
Method: as §1

KRas WT = KRas WT (Homo sapiens, UniProt P01116); test: biochemical;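 note: binding to KRas read as TR-FRET displacement after a one-hour room-temperature incubation, IC50 derived from percent-of-control values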
Method: as §1

KRas G12C = KRas G12C (Homo sapiens, UniProt P01116, G12C); test: biochemical;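 note: binding to KRas assessed by TR-FRET displacement after one hour incubation at room temperature, potency fitted from percent-of-control values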
Method: as §1

KRas G12A = KRas G12A (Homo sapiens, UniProt P01116, G12A); test: biochemical;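 note: binding to KRas measured by TR-FRET displacement after one hour at room temperature, IC50 from a four-parameter fit of percent-of-control values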
Method: as §1

KRas G12S = KRas G12S (Homo sapiens, UniProt P01116, G12S); test: biochemical;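 note: TR-FRET displacement binding to KRas, read after one hour incubation at room temperature, IC50 from four-parameter fit of percent of control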
Sequence of KRas G12S (P01116 1-169 isoform P01116-2 G12S): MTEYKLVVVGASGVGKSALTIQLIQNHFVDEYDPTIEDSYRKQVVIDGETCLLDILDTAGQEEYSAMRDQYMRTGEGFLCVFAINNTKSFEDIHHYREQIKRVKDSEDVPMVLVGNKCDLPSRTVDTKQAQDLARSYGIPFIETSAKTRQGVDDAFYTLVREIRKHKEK
Method: as §1

Sequence of KRas G12R (P01116 1-169 isoform P01116-2 G12R): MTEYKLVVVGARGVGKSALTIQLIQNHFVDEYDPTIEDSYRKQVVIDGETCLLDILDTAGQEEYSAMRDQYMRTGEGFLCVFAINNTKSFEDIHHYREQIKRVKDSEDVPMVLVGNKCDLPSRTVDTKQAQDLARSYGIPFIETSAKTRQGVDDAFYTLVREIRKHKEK
Sequence of KRas G12V (P01116 1-169 isoform P01116-2 G12V): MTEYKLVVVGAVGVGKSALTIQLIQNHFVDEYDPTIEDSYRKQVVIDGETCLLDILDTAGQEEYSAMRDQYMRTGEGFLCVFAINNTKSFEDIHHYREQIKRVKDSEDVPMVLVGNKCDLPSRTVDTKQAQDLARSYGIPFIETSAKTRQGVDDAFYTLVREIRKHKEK
Sequence of KRas G12D (P01116 1-169 isoform P01116-2 G12D): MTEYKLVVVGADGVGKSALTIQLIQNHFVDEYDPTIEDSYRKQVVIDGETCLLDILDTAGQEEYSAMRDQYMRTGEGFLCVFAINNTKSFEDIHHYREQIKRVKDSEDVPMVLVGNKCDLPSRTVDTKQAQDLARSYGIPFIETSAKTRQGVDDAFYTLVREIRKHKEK
Sequence of KRas WT (P01116 1-169 isoform P01116-2): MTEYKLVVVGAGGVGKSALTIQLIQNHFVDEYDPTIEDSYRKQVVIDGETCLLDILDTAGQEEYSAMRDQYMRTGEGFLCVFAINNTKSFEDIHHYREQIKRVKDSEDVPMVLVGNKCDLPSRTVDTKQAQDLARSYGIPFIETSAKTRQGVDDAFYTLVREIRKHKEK
Sequence of KRas G12A (P01116 1-169 isoform P01116-2 G12A): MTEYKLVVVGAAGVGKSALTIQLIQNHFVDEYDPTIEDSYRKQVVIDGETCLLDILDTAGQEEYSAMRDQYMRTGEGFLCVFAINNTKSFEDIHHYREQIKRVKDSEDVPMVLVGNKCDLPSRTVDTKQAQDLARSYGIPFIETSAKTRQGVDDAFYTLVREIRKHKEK
Sequence of KRas G12C (P01116 1-169 isoform P01116-2 G12C): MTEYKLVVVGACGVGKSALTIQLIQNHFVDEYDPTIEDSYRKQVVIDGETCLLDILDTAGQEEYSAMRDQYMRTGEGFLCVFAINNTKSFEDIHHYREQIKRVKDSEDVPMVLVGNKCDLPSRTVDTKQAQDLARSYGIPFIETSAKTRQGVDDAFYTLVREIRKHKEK

`Cc1cc2[nH]ncc2c(-c2ncc3c(N4CCCC5(CNC(=O)C5)C4)nc(OCC45CCCN4CCC5)nc3c2F)c1C` (stereo not drawn) [Example 26, 7-(7-(5,6-dimethyl-1H-indazol-4-yl)-8-fluoro-2-((hexahydro-1H-pyrrolizin-7a-yl)methoxy)pyrido[4,3-d]pyrimidin-4-yl)-2,7-diazaspiro[4.5]decan-3-one] gave an IC50 (KRas G12V) of 1260 nM, an IC50 (KRas G12D) of 845 nM and an IC50 (pERK in H727 cells) of no less than 10000 nM. The IC50 (pERK in ASPC1 cells) was no less than 10000 nM and the IC50 (KRas G12R) was 2320 nM.
`CCc1c(F)ccc2cc(O)cc(-c3ncc4c(N(C)CC5CC(=O)N5)nc(OC[C@@]56CCCN5C[C@H](F)C6)nc4c3F)c12` (stereo partly drawn) [Example 384] was tested, and the IC50 (KRas G12V) was 12 nM, the IC50 (KRas G12D) was 38 nM and the IC50 (pERK in H727 cells) was no less than 10000 nM. The IC50 (pERK in ASPC1 cells) was no less than 10000 nM and the IC50 (KRas G12R) was 32 nM.
`NC(=O)C(O)CNc1nc(OCC23CCCN2CCC3)nc2c(F)c(-c3cccc4cccc(Cl)c34)ncc12` (stereo not drawn) [Example 475, 3-((7-(8-chloronaphthalen-1-yl)-8-fluoro-2-((tetrahydro-1H-pyrrolizin-7a(5H)-yl)methoxy)pyrido[4,3-d]pyrimidin-4-yl)amino)-2-hydroxypropanamide] showed an IC50 (KRas WT) of 4600 nM, an IC50 (KRas G12V) of 1460 nM and an IC50 (KRas G12C) of 2750 nM. It also gave an IC50 (KRas G12D) of 8550 nM, an IC50 (KRas G12A) of 3680 nM and an IC50 (KRas G12R) of 2620 nM. It also gave an IC50 (KRas G12S) of 2750 nM.
For `CCc1c(F)ccc2cc(O)cc(-c3ncc4c(NCC5CNC5=O)nc(OC[C@@]56CCCN5C[C@H](F)C6)nc4c3F)c12` (stereo partly drawn) [Example 485, 3-(((7-(8-ethyl-7-fluoro-3-hydroxynaphthalen-1-yl)-8-fluoro-2-(((2R,7aS)-2-fluorotetrahydro-1H-pyrrolizin-7a(5H)-yl)methoxy)pyrido[4,3-d]pyrimidin-4-yl)amino)methyl)azetidin-2-one], the IC50 (KRas G12V) was no more than 2 nM, the IC50 (KRas G12D) was 9 nM and the IC50 (pERK in H727 cells) was 1220 nM. The IC50 (pERK in ASPC1 cells) was 6620 nM and the IC50 (KRas G12R) was 3 nM.
For `CCc1c(F)ccc2cc(O)cc(-c3ncc4c(N5C[C@H]6C[C@@H](C5)[C@H](CO)[C@H]6O)nc(OC[C@@]56CCCN5C[C@H](F)C6)nc4c3F)c12` [Example 486, (1 R,5R,6S,7R)-3-(7-(8-ethyl-7-fluoro-3-hydroxynaphthalen-1-yl)-8-fluoro-2-(((2R,7aS)-2-fluorohexahydro-1H-pyrrolizin-7a-yl)methoxy)pyrido[4,3-d]pyrimidin-4-yl)-7-(hydroxymethyl)-3-azabicyclo[3.2.1]octan-6-ol], the IC50 (KRas G12V) was 170 nM, the IC50 (KRas G12D) was 336 nM and the IC50 (pERK in H727 cells) was no less than 10000 nM. For the same molecule, the IC50 (pERK in ASPC1 cells) was no less than 10000 nM and the IC50 (KRas G12R) was 186 nM.
`CCc1c(F)ccc2cc(O)cc(-c3ncc4c(N5CCC6C(=O)NC(=O)C6C5)nc(OC[C@@]56CCCN5C[C@H](F)C6)nc4c3F)c12` (stereo partly drawn) [Example 487, 5-(7-(8-ethyl-7-fluoro-3-hydroxynaphthalen-1-yl)-8-fluoro-2-(((2R,7aS)-2-fluorohexahydro-1H-pyrrolizin-7a-yl)methoxy)pyrido[4,3-d]pyrimidin-4-yl)hexahydro-1H-pyrrolo[3,4-c]pyridine-1,3(2H)-dione] was tested, and the IC50 (KRas G12V) was 5 nM, the IC50 (KRas G12D) was 14 nM and the IC50 (pERK in H727 cells) was 4990 nM. For the same molecule, the IC50 (pERK in ASPC1 cells) was no less than 10000 nM and the IC50 (KRas G12R) was 6 nM.
In the case of `CCc1c(F)ccc2cc(O)cc(-c3ncc4c(N(C)CC5CNS(=O)(=O)N5)nc(OC[C@@]56CCCN5C[C@H](F)C6)nc4c3F)c12` (stereo partly drawn) [Example 495], the IC50 (KRas G12V) is reported as no more than 2 nM, the IC50 (KRas G12D) is reported as 8 nM and the IC50 (pERK in H727 cells) is reported as 1820 nM. For the same molecule, the IC50 (pERK in ASPC1 cells) was 1350 nM and the IC50 (KRas G12R) was 7 nM.
For `O=S1(=O)NC[C@@]2(CCCN(c3nc(OC[C@@]45CCCN4C[C@H](F)C5)nc4c(F)c(-c5cc(O)cc6ccc(F)c(Cl)c56)ncc34)C2)N1` [Example 516, (S)-7-(7-(8-chloro-7-fluoro-3-hydroxynaphthalen-1-yl)-8-fluoro-2-(((2R,7aS)-2-fluorotetrahydro-1H-pyrrolizin-7a(5H)-yl)methoxy)pyrido[4,3-d]pyrimidin-4-yl)-2-thia-1,3,7-triazaspiro [4.5]decane2,2-dioxide], the IC50 (pERK in H727 cells) was 5690 nM and the IC50 (pERK in ASPC1 cells) was 9320 nM.
